# Assays:
# Assay type in all cases: cell-based
# [1] = tested on: STAT3; test: STAT3-luc reporter cells, IL-6 stimulated luciferase
# Protocol: Western blotting was performed as previously described (Battle T E, Arbiser J, & Frank D A (2005) The natural product honokiol induces caspase dependent apoptosis in B-cell chronic lymphocytic leukemia (B-CLL) cells. Blood 106(2):690-697). Antibodies to phospho-MAPK (9101), total MAPK (9102), phospho-Y705 STAT3 (9131), phospho-S6 (2215), total S6 (2217), phospho-4E-BP1 (9451), total 4E-BP1 (9644), total RSK (9355), phospho-S6K (9234, 85 used at 1:5000), total S6K (2708), phospho-eIF2α (9721, used at 1:1000), total eIF2α (5324), ATF4 (11815, used at 1:1000), PDGFRβ (3169), IGF1Rβ (9750), EGFR (2232), and HER2 (2242) were from Cell Signaling Technology. Phospho-RSK antibody was from R&D (AF889). Antibodies to total STAT3 (sc-482) and gp130 (sc-656, used at 1:1000) were from Santa Cruz Biotechnology. Phospho-S727 STAT3 antibody was described previously (229). REDD1 antibody was from Proteintech (10638-1-AP, used at 1:1000). Antibody recognizing full-length and cleaved ATF6 was from Abcam (ab122897, used at 1:1000). Antibodies to tubulin (T5168) and beta actin (A5316) were from Sigma. All antibodies were used at 1:10000 dilution for western blot unless otherwise noted. For immunoprecipitations, cells were lysed in 500 μl lysis buffer (0.5% NP-40, 150 mM NaCl, 50 mM Tris pH 7.5, with protease and phosphatase inhibitors freshly added at 1:100 [Pierce, PI78443]) on ice for 15 minutes, then centrifuged for 10 minutes at 14,000 RPM and 4° C. The supernatant was transferred to a new tube and incubated with 10 μl JAK2 antibody (Santa Cruz sc-278) or a mix of two TYK2 antibodies, 10 μl of each (Santa Cruz sc-5271 and Cell Signaling Technology 9312). Immunoprecipitation was performed overnight at 4° C. with rotation. The next day, 75 μl of protein A/G beads (Santa Cruz sc-2003) were washed twice in lysis buffer, then incubated with immunoprecipitates overnight as before. The next day, the beads were spun down (1 min. at 7,500 RPM and 4° C.) and washed 3 times with 650 μl lysis buffer for 10 minutes at 4° C. with rotation, then boiled in 50 μl sample buffer+10% β-mercaptoethanol. For Western blot, 20 μl were loaded per lane. For detection of phospho-tyrosine, a mixture of two pan-phospho-tyrosine antibodies (Cell Signaling Technology 9411 and 9416, 1:1000 of each) was used. Antibody to phospho-Y1007/1008 JAK2 was from Cell Signaling 86 Technology (3771, used at 1:1000). Antibody to phospho-Y570 JAK2 was from Millipore (09-241, used at 1:1000). Luminometric Assays Luciferase reporter cell lines were described previously (186). Firefly luciferase values were normalized by concurrent cell viability. Cell viability was measured as ATP-dependent luminescence by Cell Titer Glo (Promega).
# To determine if atovaquone inhibits STAT3, it was tested in a cell-based reporter system of STAT3 transcriptional activity (Nelson E A, et al. (2008) Nifuroxazide inhibits survival of multiple myeloma cells by directly inhibiting STAT3. Blood 112(13):5095-5102). These cells lack basal STAT3 activation; upon IL-6 treatment, STAT3 becomes activated and drives transcription of a STAT3-dependent luciferase reporter gene. […] Activity of firefly luciferase was measured and normalized by cell viability (Cell Titer Glo). […]
# STAT3-luc reporter cells were pre-treated with atovaquone, buparvaquone or TDBHN (concentration 10, 20, 30, or 40 μM) for 1 hour, then stimulated with IL-6 (10 ng/ml) for 5 hours. The activity of firefly luciferase was measured and normalized by cell viability (Cell Titer Glo).
# [2] = tested on: INA-6, U266 and HEL cells; test: Annexin V/PI flow cytometry in STAT3-dependent cancer cells; conditions: INA-6 15 μM 24 hours; U266 and HEL 20 μM 48 hours
# Protocol: Annexin V/PI staining was performed using Annexin V:FITC Apoptosis Detection Kit I (BD Biosciences). Staining for cell cycle analysis was performed as previously described (267). Staining for cell-surface receptors was performed in 50 μl PBS+2% FBS with 2 μl antibody to IL6R (BioLegend #352803) or 5 μl antibody to gp130 (BD Biosciences #555757) for 20 minutes on ice in the dark. Cells were washed twice, then resuspended in 300 μl of the same buffer. Samples were analyzed on a BD FACSCanto II machine. Transfection and siRNA Cells were reverse-transfected using Lipofectamine RNAiMAX (Invitrogen); the culture medium was changed 24 hours later. Control siRNA (D-001210-02) and REDD1 siRNA (M-010855-01) were from Thermo Scientific Dharmacon.
# Next, the effect of atovaquone on the growth and survival of STAT3-dependent cancer cells was examined Survival of the multiple myeloma cell line INA-6 is exquisitely dependent on IL-6 added to culture medium and resultant STAT3 activation. […] The other cell lines with constitutively-active STAT3, U266 and HEL, were also killed by atovaquone.
# [3] = tested on: STAT1; test: STAT1 phosphorylation in cancer cells
# Description: (§1) It has been discovered, using an unbiased gene expression-based approach, that atovaquone is a novel STAT3 inhibitor. Atovaquone acts by diminishing cell-surface gp130 expression and STAT3 tyrosine phosphorylation. As a consequence, critical STAT3 target genes mediating survival and proliferation are reduced, such as survivin, Bcl-2 family members, and cyclin D1. Moreover, atovaquone inhibits the viability of STAT3-dependent cancer cells by inducing apoptosis and disrupting cell cycle progression. […] Since STAT5 activation is crucial to cancer pathogenesis caused by JAK2-V617F, the additional inhibition of STAT5 in this context is a desirable effect of atovaquone. […] Because the effects of atovaquone on STAT activation are restricted to gp130-dependent signaling, atovaquone inhibits STATs more selectively than direct pharmacological JAK inhibition. […] At the same time, the actions of atovaquone extend to all cytokines that signal through gp130, including LIF and OSM, thereby exerting broader effects than therapies specifically directed against IL-6 or IL-6 receptor, such as monoclonal antibodies. This is also advantageous, since oncogenic effects of LIF and OSM have been reported.
# [4] = tested on: STAT5; test: STAT5 phosphorylation in cancer cells
# Description: as §1
compound,measurement,setting,value
"O=C1C(O)=C([C@H]2CC[C@H](c3ccc(Cl)cc3)CC2)C(=O)c2ccccc21 [atovaquone, trans-2-[4-(4-chlorophenyl)cyclohexyl]-3-hydroxy-1,4-naphthalenedione]",STAT-3 reporter gene expression,"[1]; 10, 20, 30, or 40 μM for 1 hour, then IL-6 (10 ng/ml) 5 hours, relative to controls",inhibited STAT-3 reporter gene expression
same,luciferase induction by IL-6 (STAT3 transcriptional activity),"[1]; pre-treated 1 hour, then IL-6 (10 ng/ml) 5 hr, normalized by cell viability",dose-dependent inhibition of luciferase induction by IL-6
same,"effect on STAT3 activity compared with STAT1, STAT5 and NF-κB",[1]; reporter systems,much greater
same,apoptosis (annexin V and PI staining),[2],inducing apoptotic cell death
same,mutant JAK2-dependent phosphorylation of STAT1,[3]; HEL cells,inhibited
same,IL-6-dependent phosphorylation of STAT1,[3]; INA-6 and U266 cells,inhibited IL-6-dependent phosphorylation of STAT1
same,mutant JAK2-dependent phosphorylation of STAT5,[4]; HEL cells,inhibited
same,STAT5 phosphorylation (BCR-ABL activated),[4]; K562 cells,did not inhibit STAT5 phosphorylation
